The record followed here is patent US5304470A, “Process for the enzymatic preparation of protected and unprotected di- and oligopeptides in aqueous solutions” (Forschungszentrum Juelich GmbH, priority 1991, dated 1994).

Text in this series: (§1) The ethyl ester of tyrosine was reacted.
as §1, §1
Turning to `CCOC(=O)C(CCCNC(=N)N)NC(=O)C=CC(=O)O` (stereo not drawn) [Mal-Arg-OEt], the solubility in water is recorded as more than 1000 mM.

As to `CCOC(=O)C(Cc1ccccc1)NC(=O)C=CC(=O)O` (stereo not drawn) [Mal-Phe-OEt], the solubility in water is given as more than 700 mM.

In turn, `CCOC(=O)[C@H](Cc1c[nH]c2ccccc12)NC(=O)/C=C\C(=O)O` [Mal-Trp-OEt] gave a solubility in water of more than 700 mM.

The compound `CCOC(=O)[C@H](Cc1ccc(O)cc1)NC(=O)/C=C\C(=O)O` [Mal-Tyr-OEt] came in with a solubility in water of more than 600 mM.
